Source: article PMC4051630, “A Comparison of Protein Kinases Inhibitor Screening Methods Using Both Enzymatic Activity and Binding Affinity Determination” (PLoS ONE, 2014)

Experiments:
Test in all cases: Differential Scanning Fluorimetry (DSF) Tm shift
Assay type in all cases: binding
PAK7 Catalytic Domain = molecular target: T1, PAK7 Catalytic Domain (Homo sapiens, UniProt Q9P286); details: 2 µM protein, 10 µM inhibitor, average of 3 experiments, each in duplicate
T1 construct: For all of them, we expressed and purified the catalytic domain separately; His-tag; made in house; host or cells: Escherichia coli

[1] = molecular target: SRC Catalytic Domain+SH2+SH3 (Homo sapiens, UniProt P12931); details: 2 µM protein, 10 µM inhibitor, average of 3 experiments, each in duplicate
[2] = molecular target: T2, STK3 Catalytic domain+SARAH (Homo sapiens, UniProt Q13188); details: 2 µM protein, 10 µM inhibitor, average of 3 experiments, each in duplicate
T2 construct: for 8, we also made a longer version containing one or more additional domains; His-tag; made in house; host or cells: Escherichia coli
T2 sequence (Q13188 1-491): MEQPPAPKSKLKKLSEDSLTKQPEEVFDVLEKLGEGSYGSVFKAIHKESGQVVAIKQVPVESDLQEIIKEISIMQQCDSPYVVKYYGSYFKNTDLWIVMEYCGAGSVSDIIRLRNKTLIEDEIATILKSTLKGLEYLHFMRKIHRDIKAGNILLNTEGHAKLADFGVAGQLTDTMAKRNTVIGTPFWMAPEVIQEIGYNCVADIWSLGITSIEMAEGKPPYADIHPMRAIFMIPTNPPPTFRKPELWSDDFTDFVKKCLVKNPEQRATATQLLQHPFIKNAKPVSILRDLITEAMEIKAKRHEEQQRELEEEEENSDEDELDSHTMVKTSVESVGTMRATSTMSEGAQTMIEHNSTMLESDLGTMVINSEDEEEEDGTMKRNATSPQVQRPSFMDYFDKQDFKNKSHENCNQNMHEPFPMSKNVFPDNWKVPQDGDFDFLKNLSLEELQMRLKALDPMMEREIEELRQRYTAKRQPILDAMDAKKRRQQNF

FES Catalytic Domain = molecular target: T3, FES Catalytic Domain (Homo sapiens, UniProt P07332); details: 2 µM protein, 10 µM inhibitor, average of 3 experiments, each in duplicate
T3 construct: For all of them, we expressed and purified the catalytic domain separately; His-tag; made in house; host or cells: Escherichia coli

AKT3 Catalytic Domain = molecular target: T4, AKT3 Catalytic Domain (Homo sapiens, UniProt Q9Y243); details: 2 µM protein, 10 µM inhibitor, average of 3 experiments, each in duplicate
T4 construct: AKT3 (Q9Y243); CD; His-tag; made in house; host or cells: Escherichia coli

CDK2 + Cyclin E = molecular target: T5, CDK2 + Cyclin E (Homo sapiens, UniProt P24941); details: CDK2 + Cyclin E; 2 µM protein, 10 µM inhibitor; average of 3 experiments, each in duplicate
T5 construct: CDK2 (P24941); 1–299; His-tag; made in house; host or cells: Escherichia coli

PAK4 Catalytic Domain = molecular target: T6, PAK4 Catalytic Domain (Homo sapiens, UniProt O96013); details: 2 µM protein, 10 µM inhibitor, average of 3 experiments, each in duplicate
T6 construct: For all of them, we expressed and purified the catalytic domain separately; His-tag; made in house; host or cells: Escherichia coli

SRC Catalytic Domain = SRC Catalytic Domain (Homo sapiens, UniProt P12931); parameters: For all of them, we expressed and purified the catalytic domain separately; His-tag; made in house; host or cells: Escherichia coli; details: 2 µM protein, 10 µM inhibitor, average of 3 experiments, each in duplicate
STK3 Catalytic Domain = molecular target: T7, STK3 Catalytic Domain (Homo sapiens, UniProt Q13188); details: 2 µM protein, 10 µM inhibitor, average of 3 experiments, each in duplicate
T7 construct: For all of them, we expressed and purified the catalytic domain separately; His-tag; made in house; host or cells: Escherichia coli
T7 sequence (Q13188 27-278 limits assumed): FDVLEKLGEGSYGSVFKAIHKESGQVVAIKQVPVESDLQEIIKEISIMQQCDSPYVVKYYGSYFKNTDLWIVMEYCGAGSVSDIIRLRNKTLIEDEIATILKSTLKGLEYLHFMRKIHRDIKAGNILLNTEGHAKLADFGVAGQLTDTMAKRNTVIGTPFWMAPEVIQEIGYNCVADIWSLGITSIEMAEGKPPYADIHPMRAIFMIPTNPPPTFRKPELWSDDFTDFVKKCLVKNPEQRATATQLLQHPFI

CDK2 + Cyclin A = molecular target: T8, CDK2 + Cyclin A (Homo sapiens, UniProt P24941); details: CDK2 + Cyclin A; 2 µM protein, 10 µM inhibitor; average of 3 experiments, each in duplicate
T8 construct: CDK2 (P24941); 1–299; His-tag; made in house; host or cells: Escherichia coli

[3] = molecular target: T9, PAK4 Catalytic Domain+PBD (Homo sapiens, UniProt O96013); details: 2 µM protein, 10 µM inhibitor, average of 3 experiments, each in duplicate
T9 construct: for 8, we also made a longer version containing one or more additional domains; His-tag; made in house; host or cells: Escherichia coli

FAK2 Catalytic Domain = molecular target: T10, FAK2 Catalytic Domain (Homo sapiens, UniProt Q14289); details: 2 µM protein, 10 µM inhibitor, average of 3 experiments, each in duplicate
T10 construct: For all of them, we expressed and purified the catalytic domain separately; His-tag; made in house; host or cells: Escherichia coli

FES Catalytic Domain+SH2 = molecular target: T11, FES Catalytic Domain+SH2 (Homo sapiens, UniProt P07332); details: 2 µM protein, 10 µM inhibitor, average of 3 experiments, each in duplicate
T11 construct: for 8, we also made a longer version containing one or more additional domains; His-tag; made in house; host or cells: Escherichia coli

CHK2 Catalytic Domain = molecular target: T12, CHK2 Catalytic Domain (Homo sapiens, UniProt O96017); details: 2 µM protein, 10 µM inhibitor, average of 3 experiments, each in duplicate
T12 construct: For all of them, we expressed and purified the catalytic domain separately; His-tag; made in house; host or cells: Escherichia coli

DMPK Catalytic Domain = molecular target: T13, DMPK Catalytic Domain (Homo sapiens, UniProt Q09013); details: 2 µM protein, 10 µM inhibitor, average of 3 experiments, each in duplicate
T13 construct: For all of them, we expressed and purified the catalytic domain separately; His-tag; made in house; host or cells: Escherichia coli
T13 sequence (Q09013 71-339 limits assumed): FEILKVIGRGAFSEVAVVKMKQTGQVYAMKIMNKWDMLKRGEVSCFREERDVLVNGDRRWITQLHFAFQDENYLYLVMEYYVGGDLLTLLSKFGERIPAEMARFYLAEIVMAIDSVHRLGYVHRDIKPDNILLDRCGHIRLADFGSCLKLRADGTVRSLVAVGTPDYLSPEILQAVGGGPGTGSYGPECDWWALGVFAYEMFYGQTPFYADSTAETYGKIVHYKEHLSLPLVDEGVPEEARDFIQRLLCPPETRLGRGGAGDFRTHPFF

T6 sequence (O96013 321-572 limits assumed): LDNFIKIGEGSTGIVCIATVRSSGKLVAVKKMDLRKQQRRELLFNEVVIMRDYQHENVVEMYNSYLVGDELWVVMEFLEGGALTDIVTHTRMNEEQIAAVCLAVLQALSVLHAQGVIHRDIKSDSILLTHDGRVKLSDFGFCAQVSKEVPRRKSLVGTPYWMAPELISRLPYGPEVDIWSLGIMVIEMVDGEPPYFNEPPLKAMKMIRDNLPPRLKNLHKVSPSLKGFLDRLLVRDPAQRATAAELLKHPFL
T3 sequence (P07332 561-822 limits assumed): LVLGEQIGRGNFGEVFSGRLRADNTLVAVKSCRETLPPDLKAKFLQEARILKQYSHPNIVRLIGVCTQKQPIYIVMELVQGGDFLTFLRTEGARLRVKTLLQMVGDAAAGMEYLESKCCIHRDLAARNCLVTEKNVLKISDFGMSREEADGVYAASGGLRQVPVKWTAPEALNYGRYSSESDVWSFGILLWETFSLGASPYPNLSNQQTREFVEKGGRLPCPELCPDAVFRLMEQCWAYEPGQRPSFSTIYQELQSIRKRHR
T1 sequence (Q9P286 449-700 limits assumed): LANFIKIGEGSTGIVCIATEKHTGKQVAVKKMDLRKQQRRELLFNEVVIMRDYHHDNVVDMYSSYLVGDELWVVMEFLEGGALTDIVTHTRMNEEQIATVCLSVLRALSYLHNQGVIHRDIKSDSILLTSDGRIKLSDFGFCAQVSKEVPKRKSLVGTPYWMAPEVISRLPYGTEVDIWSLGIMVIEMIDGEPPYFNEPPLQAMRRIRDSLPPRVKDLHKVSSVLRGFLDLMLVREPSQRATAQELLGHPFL
T4 sequence (Q9Y243 122-479): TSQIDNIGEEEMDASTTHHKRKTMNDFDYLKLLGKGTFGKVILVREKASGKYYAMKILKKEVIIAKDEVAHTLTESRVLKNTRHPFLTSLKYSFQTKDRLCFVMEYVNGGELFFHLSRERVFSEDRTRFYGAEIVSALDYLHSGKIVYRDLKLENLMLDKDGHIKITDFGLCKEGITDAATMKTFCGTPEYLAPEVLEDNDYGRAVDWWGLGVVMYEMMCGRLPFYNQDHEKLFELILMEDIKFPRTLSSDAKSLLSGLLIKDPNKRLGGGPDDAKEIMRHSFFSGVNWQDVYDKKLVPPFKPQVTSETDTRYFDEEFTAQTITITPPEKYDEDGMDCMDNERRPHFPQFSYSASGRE
T10 sequence (Q14289 425-683 limits assumed): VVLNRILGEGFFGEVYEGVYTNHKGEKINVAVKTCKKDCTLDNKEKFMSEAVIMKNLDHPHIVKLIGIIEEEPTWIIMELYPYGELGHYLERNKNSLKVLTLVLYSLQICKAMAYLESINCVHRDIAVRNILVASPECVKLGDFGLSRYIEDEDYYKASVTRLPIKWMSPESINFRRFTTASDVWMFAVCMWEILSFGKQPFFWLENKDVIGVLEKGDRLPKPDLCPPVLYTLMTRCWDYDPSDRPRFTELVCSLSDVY
T12 sequence (O96017 220-486 limits assumed): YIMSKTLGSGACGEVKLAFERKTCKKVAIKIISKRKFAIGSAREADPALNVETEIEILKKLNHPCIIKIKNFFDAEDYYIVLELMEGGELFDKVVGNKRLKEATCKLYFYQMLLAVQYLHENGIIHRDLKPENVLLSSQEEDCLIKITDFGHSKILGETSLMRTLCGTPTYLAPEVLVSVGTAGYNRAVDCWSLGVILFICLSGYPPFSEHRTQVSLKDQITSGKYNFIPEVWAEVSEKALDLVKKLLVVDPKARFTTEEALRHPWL
T11 sequence (P07332 448-822 limits assumed): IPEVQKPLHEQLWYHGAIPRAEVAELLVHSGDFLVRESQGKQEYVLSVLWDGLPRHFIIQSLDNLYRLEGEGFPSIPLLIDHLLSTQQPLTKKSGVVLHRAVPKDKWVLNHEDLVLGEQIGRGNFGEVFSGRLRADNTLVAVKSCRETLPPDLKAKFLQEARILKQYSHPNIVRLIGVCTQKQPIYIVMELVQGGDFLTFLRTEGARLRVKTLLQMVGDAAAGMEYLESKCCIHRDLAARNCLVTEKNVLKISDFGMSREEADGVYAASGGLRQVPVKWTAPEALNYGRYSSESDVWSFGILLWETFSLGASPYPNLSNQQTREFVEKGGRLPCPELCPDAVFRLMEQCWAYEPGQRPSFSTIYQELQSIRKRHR
T9 sequence (O96013 whole entry, the tested form may be a part): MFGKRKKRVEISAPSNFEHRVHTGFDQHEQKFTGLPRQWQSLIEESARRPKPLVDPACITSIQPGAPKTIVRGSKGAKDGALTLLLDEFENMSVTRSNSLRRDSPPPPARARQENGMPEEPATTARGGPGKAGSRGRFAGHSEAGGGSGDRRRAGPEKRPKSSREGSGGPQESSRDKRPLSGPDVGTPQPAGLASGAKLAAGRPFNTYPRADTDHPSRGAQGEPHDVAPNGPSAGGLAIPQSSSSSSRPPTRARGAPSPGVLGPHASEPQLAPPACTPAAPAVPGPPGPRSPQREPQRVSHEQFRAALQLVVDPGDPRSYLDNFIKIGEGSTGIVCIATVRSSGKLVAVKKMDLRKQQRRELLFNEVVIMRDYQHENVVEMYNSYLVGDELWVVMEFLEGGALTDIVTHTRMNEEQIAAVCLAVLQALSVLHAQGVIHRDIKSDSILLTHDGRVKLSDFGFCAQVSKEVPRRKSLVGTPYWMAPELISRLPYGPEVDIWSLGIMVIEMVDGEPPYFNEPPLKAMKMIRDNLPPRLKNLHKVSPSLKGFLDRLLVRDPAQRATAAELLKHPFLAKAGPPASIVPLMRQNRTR

Row | Molecule | Melting temperature (Tm) shift (PAK7 Catalytic Domain) [degrees Celcius] | Melting temperature (Tm) shift [1] [degrees Celcius] | Melting temperature (Tm) shift [2] [degrees Celcius] | Melting temperature (Tm) shift (FES Catalytic Domain) [degrees Celcius] | Melting temperature (Tm) shift (AKT3 Catalytic Domain) [degrees Celcius] | Melting temperature (Tm) shift (CDK2 + Cyclin E) [degrees Celcius] | Melting temperature (Tm) shift (PAK4 Catalytic Domain) [degrees Celcius] | Melting temperature (Tm) shift (SRC Catalytic Domain) [degrees Celcius] | Melting temperature (Tm) shift (STK3 Catalytic Domain) [degrees Celcius] | Melting temperature (Tm) shift (CDK2 + Cyclin A) [degrees Celcius] | Melting temperature (Tm) shift [3] [degrees Celcius] | Melting temperature (Tm) shift (FAK2 Catalytic Domain) [degrees Celcius] | Melting temperature (Tm) shift (FES Catalytic Domain+SH2) [degrees Celcius] | Melting temperature (Tm) shift (CHK2 Catalytic Domain) [degrees Celcius] | Melting temperature (Tm) shift (DMPK Catalytic Domain) [degrees Celcius]
1 | CCn1cnc2c(Nc3cccc(Cl)c3)nc(N[C@H]3CCCC[C@H]3N)nc21 [Cdk1 Inhibitor, CGP74514A] | 5.4 | 1.3 | 1.2 | 1.6 | 0.0 | 3.7 | 5.6 | 1.2 | 1.3 | 4.4 | 8.1 | 1.9 | 0.7 | 1.8 | 1.4
2 | Chk2 Inhibitor | 0.3 | 0.3 | 3.4 | 3.0 | 0.0 | 1.9 | 0.7 | 0.2 | 2.3 | 2.9 | 0.6 | 2.6 | 0.6 | 8.7 | 1.4
3 | CC(C)n1cnc2c(Nc3cccc(Cl)c3)nc(NCCO)nc21 [Compound 52] | 1.8 | 0.8 | 0.7 | 2.3 | 0.0 | 1.7 | 2.0 | 0.9 | 1.2 | 2.3 | 5.0 | 0.9 | 0.6 | 1.1 | 0.0

Next, values leading:

Row | Melting temperature (Tm) shift (PAK7 Catalytic Domain) [degrees Celcius] | Melting temperature (Tm) shift [1] [degrees Celcius] | Melting temperature (Tm) shift [2] [degrees Celcius] | Melting temperature (Tm) shift (FES Catalytic Domain) [degrees Celcius] | Melting temperature (Tm) shift (AKT3 Catalytic Domain) [degrees Celcius] | Melting temperature (Tm) shift (CDK2 + Cyclin E) [degrees Celcius] | Melting temperature (Tm) shift (PAK4 Catalytic Domain) [degrees Celcius] | Melting temperature (Tm) shift (SRC Catalytic Domain) [degrees Celcius] | Melting temperature (Tm) shift (STK3 Catalytic Domain) [degrees Celcius] | Melting temperature (Tm) shift (CDK2 + Cyclin A) [degrees Celcius] | Melting temperature (Tm) shift [3] [degrees Celcius] | Melting temperature (Tm) shift (FAK2 Catalytic Domain) [degrees Celcius] | Melting temperature (Tm) shift (FES Catalytic Domain+SH2) [degrees Celcius] | Melting temperature (Tm) shift (CHK2 Catalytic Domain) [degrees Celcius] | Melting temperature (Tm) shift (DMPK Catalytic Domain) [degrees Celcius] | Molecule
4 | 0.1 | 0.1 | 0.4 | 0.0 | 0.1 | 0.5 | 0.5 | 0.2 | 0.2 | 0.2 | 0.6 | 0.5 | 0.2 | 0.3 | 1.4 | N#Cc1cnc2cnc(NCc3cccnc3)cc2c1Nc1ccc(F)c(Cl)c1 [Tpl2 Kinase Inhibitor]
5 | 1.0 | 0.1 | 3.7 | 0.2 | 0.1 | 0.8 | 0.7 | 0.1 | 1.1 | 0.2 | 1.5 | 0.3 | 0.2 | 5.9 | 2.2 | Wee1/Chk1 Inhibitor
6 | 0.3 | 0.2 | 1.2 | 0.0 | 0.1 | 0.8 | 0.5 | 0.3 | – | 0.1 | 1.0 | 0.9 | 0.2 | 0.1 | 0.6 | CCCCn1c2ccc(O)cc2c2c3c(c(-c4ccccc4Cl)cc21)C(=O)NC3=O [Wee1 Inhibitor II]
